# Literature values in publication PMC10623564, “Ruthenium-Based Photoactivated Chemotherapy” (Journal of the American Chemical Society, 2023).
# Like-named read-outs stand apart in the source and are kept apart here. Marks after values point to notes of the source that are not given here.
# Assays:
# [1] = for φPS, mtep photosubstitution: in acetonitrile (521 nm printed for 23^+); for φPS, photosubstitution of one axial MeCN by chloride: 298 K, in CH2Cl2
# [2] = not given; remark: listed apart in the source
# [3] = for φΔ, singlet oxygen (1O2) generation quantum yield: in CD3OD solution
# [4] = test system: CRMM1 conjunctival melanoma cancer cell line; design: method as in PMID 35774173; conditions: CRMM1 cells, green light
# [5] = test system: CRMM2 conjunctival melanoma cancer cell line; design: method as in PMID 35774173; conditions: CRMM2 cells, green light
# [6] = test system: PC3Pro4 prostate cancer cell lines; design: method as in PMID 35774173; conditions: PC3Pro4 cells, green light
# [7] = test system: orthotopic CRMM1 eye tumor model; design: method as in PMID 35774173
# [8] = test system: PC3Pro4 ectopic prostate zebrafish tumor model; design: method as in PMID 35774173; conditions: compound in water or intravenous injection, green light
# CYP3A4 = test system: CYP3A4; design: method as in PMID 34110801; conditions: Figure 8c, read-out: IC50, CYP3A4 protein activity
# NAMPT = test system: NAMPT; design: method as in PMID 28666065
# A431 skin cancer cells = test system: A431 skin cancer cells; design: method as in PMID 28666065
# [9] = conditions not given
# cancer cells = test system: cancer cells; design: method as in PMID 30155140; conditions: photosubstitution of the axial dmso ligand
# [10] = λexc 450 nm, in water, room temperature
# [11] = λexc 521 nm, in acetonitrile, room temperature
# [12] = λexc 450 nm, in acetonitrile, room temperature
# [13] = λexc not given, in water, room temperature
compound,measurement,setting,value
"CC#N.CC(=O)C=C(C)[O][Ru+].c1ccc(-c2cccc(-c3ccccn3)n2)nc1 [1^+, [Ru(tpy)(acac)(MeCN)]^+]","φPS, quantum yield for photosubstitution",[1]; [10],0.014 (450) ^j
same,toxicity in the dark,dark,quite toxic in the dark
"Cc1cccc(-c2cccc(C)n2)n1.[Ru+2].c1ccc(-c2ccccn2)nc1.c1ccc(-c2ccccn2)nc1 [2^2+, [Ru(bpy)2(dmbpy)]^2+]","φPS, quantum yield for photosubstitution","[1]; λexc 413 nm, in acetonitrile, room temperature",0.05 (413) ^f
"Oc1cccc(-c2cccc(O)n2)n1.[Ru+2].c1ccc(-c2ccccn2)nc1.c1ccc(-c2ccccn2)nc1 [3^2+, [Ru(bpy)2(6,6′-dOHbpy)]^2+]","φPS, quantum yield for photosubstitution","[1]; λexc 450 nm, in aqueous solution at pH 5.0",0.0058 (450) ^g
same,"φPS, quantum yield for photosubstitution","[1]; λexc 450 nm, in aqueous solution at pH 7.5",0.0012 (450) ^h
same,λmax^MLCT,[2]; Table 1 row with φPS in aqueous solution at pH 5.0,462 nm
same,λmax^MLCT,[2]; Table 1 row with φPS in aqueous solution at pH 7.5,493 nm
same,"φΔ, singlet oxygen (1O2) generation quantum yield",[3]; Table 1 row with φPS at pH 5.0,0.041 ^i
same,"φΔ, singlet oxygen (1O2) generation quantum yield",[3]; Table 1 row with φPS at pH 7.5,0.18 ^i
"CSCc1ccccn1.[Ru+2].c1ccc(-c2ccccn2)nc1.c1ccc(-c2ccnc3c2ccc2c(-c4ccccc4)ccnc23)cc1 [5^2+, [Ru(dpp)(bpy)(mtmp)]^2+]",photosubstitution quantum yield,[1]; in deaerated acetonitrile,0.11
same,"φPS, quantum yield for photosubstitution",[1]; [11],0.111 (521) ^f
same,PI value (photoindex),[4],8.5
same,PI value (photoindex),[5],8.8
same,PI value (photoindex),[6],> 31
same,activation in vivo,"[7]; four consecutive PACT treatments of 90 min irradiation (114 J/cm^2) each, 520 nm",clear activation
same,antitumor activity in vivo,"[7]; orthotopic eye tumor model, retro-orbital injection, green light (520 nm, 114 J/cm^2)",good antitumor activity
same,antitumor activity in vivo,[8],no antitumor activity
"N.N.[Ru+2].c1ccc(-c2ccccn2)nc1.c1ccc(-c2ccccn2)nc1 [8^2+, [Ru(bpy)2(NH3)2]^2+]","φPS, quantum yield for photosubstitution","[1]; λexc 350 nm, in water, room temperature",0.024 (350) ^j
"CC(C)(C)OC(=O)N[C@H](CSCCC(=O)NCc1cccnc1)Cc1ccccc1.Cc1cccc(-c2cccc(C)n2)n1.[Ru+2].c1ccc(-c2cccc(-c3ccccn3)n2)nc1 [11^2+, [Ru(tpy)(dmbpy)(R-py)]^2+]","φPS, quantum yield for photosubstitution","[1]; λexc 500 nm, in acetonitrile, room temperature",0.31 (500) ^f
same,"φPS, quantum yield for photosubstitution","[1]; λexc 500 nm, in water, room temperature",0.15 (500) ^j
same,IC50,CYP3A4; after light activation,2.2 µM
same,IC50,CYP3A4; in the dark,0.9 µM
"CC(C)(C)c1ccc(S(=O)(=O)NCc2ccc(C(=O)Nc3cccnc3)cc2)cc1.[Ru+2].c1ccc(-c2cccc(-c3ccccn3)n2)nc1.c1ccc2nc(-c3ccc4ccccc4n3)ccc2c1 [12^2+, [Ru(tpy)(biq)(STF31)]^2+]","φPS, quantum yield for photosubstitution","[1]; λexc 625 nm, in water, room temperature",0.013 (625) ^j
same,λmax (absorption maximum),[2]; Figure 6 bottom,531 nm
same,"εexc, molar absorption coefficient at the excitation wavelength",[2]; λexc = 625 nm (red light),379 M^–1·cm^–1
same,loss of potency on caging relative to STF31,"NAMPT; NAMPT, dark",18 times
same,IC50,"NAMPT; caged compound in the dark, read-out: IC50,dark, NAMPT inhibition",4.8 µM
same,PI value (photoindex),"A431 skin cancer cells; A431 cells, normoxia (21% O2)",3.3
same,EC50,"A431 skin cancer cells; A431 skin cancer cells, normoxia, dark",23.6 µM
same,PI value (photoindex),A431 skin cancer cells; hypoxic A431 cells (1% O2),3.6
"CC#N.CC#N.[Ru+2].c1ccc(-c2ccccn2)nc1.c1ccc2cc3nc4c5cccnc5c5ncccc5c4nc3cc2c1 [17^2+, [Ru(bpy)(dppn)(MeCN)2]^2+]","φPS, quantum yield for photosubstitution","[1]; λexc 400 nm, in water, room temperature",0.002 (400) ^j
"CSCCc1ccccn1.[Ru+][c]1ccccc1-c1ccccn1.c1ccc(-c2ccccn2)nc1 [23^+, [Ru(bpy)(phpy)(mtep)]^+]","φPS, mtep photosubstitution",[1],0.00035
same,"φPS, quantum yield for photosubstitution",[1]; [11],0.00035 (521) ^f
"CC(C)(C)c1ccc(S(=O)(=O)NCc2ccc(C(=O)Nc3cccnc3)cc2)cc1 [STF31, reference compound]",IC50,"NAMPT; uncaged inhibitor, read-out: IC50, NAMPT inhibition",0.25 µM
"CC#N.CC#N.[Ru+2].c1ccc(-c2ccccn2)nc1.c1ccc(-c2ccccn2)nc1 [[Ru(bpy)2(MeCN)2]^2+, reference compound]","φPS, quantum yield for photosubstitution",[1]; [10],0.22 (450) ^j
same,"φPS, quantum yield for photosubstitution","[1]; λexc printed as 40098 nm, in water, room temperature",0.21 (40098) ^j
"CSCCc1ccccn1.[Ru+2].c1ccc(-c2ccccn2)nc1.c1ccc(-c2ccccn2)nc1 [[Ru(bpy)2(mtep)]^2+, reference compound]","φPS, mtep photosubstitution",[1],0.0030
"[Ru+2].c1ccc(-c2ccccn2)nc1.c1ccc(-c2ccccn2)nc1.c1ccc(-c2ccccn2)nc1 [[Ru(bpy)3]^2+, reference compound]","φPS, quantum yield for photosubstitution","[1]; λexc 436 nm, at 363 K in 0.1 M aqueous HCl",0.00053 (436) ^e
same,"φPS, quantum yield for photosubstitution",[1]; [12],0 (450) ^f
same,φP (phosphorescence),[9],≈ 0.02
same,φΔ (generator of 1O2),[3]; conditions not given,≈ 0.73
"CC#N.CC#N.CC#N.[Ru+2].c1ccc(-c2cccc(-c3ccccn3)n2)nc1 [[Ru(tpy)(MeCN)3]^2+, reference compound]","φPS, photosubstitution of one axial MeCN by chloride",[1]; 436 nm,0.040
same,"φPS, photosubstitution of one axial MeCN by chloride",[1]; 480 nm,0.041
"CSCCO.[Ru+2].c1ccc(-c2cccc(-c3ccccn3)n2)nc1.c1ccc(-c2ccccn2)nc1 [[Ru(tpy)(bpy)(Hmte)]^2+, reference compound]","φPS, quantum yield for photosubstitution","[1]; λexc 452 nm, in water, room temperature",0.022 (452) ^j
"O.[Ru+2].c1ccc(-c2cccc(-c3ccccn3)n2)nc1.c1ccc(-c2ccccn2)nc1 [[Ru(tpy)(bpy)(OH2)]^2+, reference compound]",toxicity of the complex by itself,,poorly toxic
"CS(C)=O.[Ru+2].c1ccc(-c2cccc(-c3ccccn3)n2)nc1.c1ccc(-c2ccccn2)nc1 [[Ru(tpy)(bpy)(dmso)]^2+, reference compound]",quantum yield of photosubstitution of dmso by acetonitrile,[1]; at 450 nm,0.016
same,"φPS, quantum yield for photosubstitution",[1]; [12],0.016 (450) ^f
"Cc1cccc(-c2cccc(C)n2)n1.[Cl-].[Cl][Ru+].c1ccc(-c2cccc(-c3ccccn3)n2)nc1 [[Ru(try)(dmbpy)Cl]Cl, [Ru(tpy)(dmbpy)Cl]Cl, reference compound]",IC50,CYP3A4,50 µM
"CP(C)C.[Ru+2].c1c[nH]cn1.c1ccc(-c2ccccn2)nc1.c1ccc(-c2ccccn2)nc1 [cis-9^2+, cis-[Ru(bpy)2(PMe3)(ImH)]^2+]","φPS, quantum yield for photosubstitution",[1]; [13],0.10 ^j
same,absorption maximum,[2],432 nm
CC(C)(C)OC(=O)N[C@H](CSCCC(=O)NCc1cccnc1)Cc1ccccc1 [compound 24],IC50,CYP3A4,1.5 µM
"CP(C)C.[Ru+2].c1c[nH]cn1.c1ccc(-c2ccccn2)nc1.c1ccc(-c2ccccn2)nc1 [trans-9^2+, trans-[Ru(bpy)2(PMe3)(ImH)]^2+]","φPS, quantum yield for photosubstitution",[1]; [13],0.23 ^j
same,absorption maximum,[2],464 nm
[Ru(bapbpy)(dmso)(OH2)]^+ [10^2+],"φPS, quantum yield for photosubstitution",[1]; [10],0.003 (450) ^j
same,effect of light irradiation performed in cancer cells,cancer cells,led to cell death
